Source: PubChem BioAssay (NCI)
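Grown in 96-well plates, cells were treated for 48 hours with each compound at five concentrations. Insufficient inhibition: endpoint recorded as highest concentration tested. GI50: concentration for 50% inhibition of growth. At the TGI there is no net growth.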

Columns and labels:
Test in all cases: DTP human tumour cell line panel, 48 h
786-0 renal = tested on: 786-0 renal
A498 renal = tested on: A498 renal
A549 NSCLC = tested on: A549 NSCLC
ACHN renal = tested on: ACHN renal
BT-549 breast = tested on: BT-549 breast
CAKI-1 renal = tested on: CAKI-1 renal
CCRF-CEM leukemia = tested on: CCRF-CEM leukemia
COLO 205 colon = tested on: COLO 205 colon
DU-145 prostate = tested on: DU-145 prostate
EKVX NSCLC = tested on: EKVX NSCLC
HCC-2998 colon = tested on: HCC-2998 colon
HCT-116 colon = tested on: HCT-116 colon
HCT-15 colon = tested on: HCT-15 colon
HL-60(TB) leukemia = tested on: HL-60(TB) leukemia
HOP-62 NSCLC = tested on: HOP-62 NSCLC
HOP-92 NSCLC = tested on: HOP-92 NSCLC
HS 578T breast = tested on: HS 578T breast
HT29 colon = tested on: HT29 colon
IGROV1 ovarian = tested on: IGROV1 ovarian
K-562 leukemia = tested on: K-562 leukemia
KM12 colon = tested on: KM12 colon
LOX IMVI melanoma = tested on: LOX IMVI melanoma
M14 melanoma = tested on: M14 melanoma
MALME-3M melanoma = tested on: MALME-3M melanoma
MCF7 breast = tested on: MCF7 breast
MDA-MB-231 breast = tested on: MDA-MB-231 breast
MDA-MB-435 = tested on: MDA-MB-435
MDA-MB-468 breast = tested on: MDA-MB-468 breast
MOLT-4 leukemia = tested on: MOLT-4 leukemia
NCI-H226 lung = tested on: NCI-H226 lung
NCI-H23 lung = tested on: NCI-H23 lung
NCI-H460 lung = tested on: NCI-H460 lung
NCI-H522 lung = tested on: NCI-H522 lung
NCI/ADR-RES ovarian = tested on: NCI/ADR-RES ovarian
OVCAR-3 ovarian = tested on: OVCAR-3 ovarian
OVCAR-4 ovarian = tested on: OVCAR-4 ovarian
OVCAR-5 ovarian = tested on: OVCAR-5 ovarian
OVCAR-8 ovarian = tested on: OVCAR-8 ovarian
PC-3 prostate = tested on: PC-3 prostate
RPMI-8226 leukemia = tested on: RPMI-8226 leukemia
RXF 393 renal = tested on: RXF 393 renal
SF-268 CNS = tested on: SF-268 CNS
SF-295 CNS = tested on: SF-295 CNS
SF-539 CNS = tested on: SF-539 CNS
SK-MEL-2 melanoma = tested on: SK-MEL-2 melanoma
SK-MEL-28 melanoma = tested on: SK-MEL-28 melanoma
SK-MEL-5 melanoma = tested on: SK-MEL-5 melanoma
SK-OV-3 ovarian = tested on: SK-OV-3 ovarian
SN12C renal = tested on: SN12C renal
SNB-19 CNS = tested on: SNB-19 CNS
SR leukemia = tested on: SR leukemia
SW-620 colon = tested on: SW-620 colon
T-47D breast = tested on: T-47D breast
TK-10 renal = tested on: TK-10 renal
U251 CNS = tested on: U251 CNS
UACC-257 melanoma = tested on: UACC-257 melanoma
UACC-62 melanoma = tested on: UACC-62 melanoma
UO-31 renal = tested on: UO-31 renal

O=C(NNc1nc2cc(F)ccc2n2c(CN3CC4CNCC4C3)ccc12)c1ccncn1 (stereo unspecified)
GI50 (786-0 renal): 0.5 µM | TGI (786-0 renal): 11.3 µM | GI50 (A498 renal): 24.9 µM | TGI (A498 renal): 40.4 µM | GI50 (A549 NSCLC): 2.09 µM | TGI (A549 NSCLC): 14.9 µM | GI50 (ACHN renal): 0.62 µM | TGI (ACHN renal): 11.2 µM | GI50 (BT-549 breast): 1.59 µM | TGI (BT-549 breast): 13.2 µM | GI50 (CAKI-1 renal): 0.654 µM | TGI (CAKI-1 renal): 12.8 µM | GI50 (CCRF-CEM leukemia): 1.55 µM | TGI (CCRF-CEM leukemia): 6.18 µM | GI50 (COLO 205 colon): 3.05 µM | TGI (COLO 205 colon): 12.1 µM | GI50 (DU-145 prostate): 3.26 µM | TGI (DU-145 prostate): 15.7 µM | GI50 (EKVX NSCLC): 0.441 µM | TGI (EKVX NSCLC): 9.23 µM | GI50 (HCC-2998 colon): 3.05 µM | TGI (HCC-2998 colon): 17.5 µM | GI50 (HCT-116 colon): 0.73 µM | TGI (HCT-116 colon): 13.7 µM | GI50 (HCT-15 colon): 0.746 µM | TGI (HCT-15 colon): 15.9 µM | GI50 (HL-60(TB) leukemia): 1.23 µM | TGI (HL-60(TB) leukemia): 4.51 µM | GI50 (HOP-62 NSCLC): 0.686 µM | TGI (HOP-62 NSCLC): 12.1 µM | GI50 (HOP-92 NSCLC): 0.0544 µM | TGI (HOP-92 NSCLC): 6.37 µM | GI50 (HS 578T breast): 10 µM | TGI (HS 578T breast): 81.9 µM | GI50 (HT29 colon): 2.02 µM | TGI (HT29 colon): 18.1 µM | GI50 (IGROV1 ovarian): 2.36 µM | TGI (IGROV1 ovarian): 13.3 µM | GI50 (K-562 leukemia): 1.76 µM | TGI (K-562 leukemia): 11.9 µM | GI50 (KM12 colon): 1.78 µM | TGI (KM12 colon): 16.2 µM | GI50 (LOX IMVI melanoma): 1 µM | TGI (LOX IMVI melanoma): 4.05 µM | GI50 (M14 melanoma): 0.804 µM | TGI (M14 melanoma): 4.74 µM | GI50 (MALME-3M melanoma): 2.17 µM | TGI (MALME-3M melanoma): 8.75 µM | GI50 (MCF7 breast): 2 µM | TGI (MCF7 breast): 12.1 µM | GI50 (MDA-MB-231 breast): 2.31 µM | TGI (MDA-MB-231 breast): 16.2 µM | GI50 (MDA-MB-435): 3.68 µM | TGI (MDA-MB-435): 17.6 µM | GI50 (MDA-MB-468 breast): 1.21 µM | TGI (MDA-MB-468 breast): 3.57 µM | GI50 (MOLT-4 leukemia): 1.45 µM | TGI (MOLT-4 leukemia): 9.6 µM | GI50 (NCI-H226 lung): 0.943 µM | TGI (NCI-H226 lung): 6.73 µM | GI50 (NCI-H23 lung): 2.31 µM | TGI (NCI-H23 lung): 10.4 µM | GI50 (NCI-H460 lung): 0.591 µM | TGI (NCI-H460 lung): 16.1 µM | GI50 (NCI-H522 lung): 2.36 µM | TGI (NCI-H522 lung): 11.7 µM | GI50 (NCI/ADR-RES ovarian): 11.5 µM | TGI (NCI/ADR-RES ovarian): 29.9 µM | GI50 (OVCAR-3 ovarian): 3.26 µM | TGI (OVCAR-3 ovarian): 17.3 µM | GI50 (OVCAR-4 ovarian): 1.56 µM | TGI (OVCAR-4 ovarian): 17.3 µM | GI50 (OVCAR-5 ovarian): 2.49 µM | TGI (OVCAR-5 ovarian): 17.5 µM | GI50 (OVCAR-8 ovarian): 1.29 µM | TGI (OVCAR-8 ovarian): 10.4 µM | GI50 (PC-3 prostate): 2.11 µM | TGI (PC-3 prostate): 15.4 µM | GI50 (RPMI-8226 leukemia): 1.95 µM | TGI (RPMI-8226 leukemia): 10.8 µM | GI50 (RXF 393 renal): 1.58 µM | TGI (RXF 393 renal): 12.8 µM | GI50 (SF-268 CNS): 1.71 µM | TGI (SF-268 CNS): 15 µM | GI50 (SF-295 CNS): 0.421 µM | TGI (SF-295 CNS): 10.7 µM | GI50 (SF-539 CNS): 1.56 µM | TGI (SF-539 CNS): 6.4 µM | GI50 (SK-MEL-2 melanoma): 2.65 µM | TGI (SK-MEL-2 melanoma): 14.7 µM | GI50 (SK-MEL-28 melanoma): 2.36 µM | TGI (SK-MEL-28 melanoma): 14.1 µM | GI50 (SK-MEL-5 melanoma): 1.52 µM | TGI (SK-MEL-5 melanoma): 8.29 µM | GI50 (SK-OV-3 ovarian): 0.984 µM | TGI (SK-OV-3 ovarian): 12.1 µM | GI50 (SN12C renal): 1.79 µM | TGI (SN12C renal): 11.8 µM | GI50 (SNB-19 CNS): 2.67 µM | TGI (SNB-19 CNS): 16.6 µM | GI50 (SR leukemia): 0.751 µM | TGI (SR leukemia): 9.24 µM | GI50 (SW-620 colon): 2.55 µM | TGI (SW-620 colon): 23.1 µM | GI50 (T-47D breast): 3.11 µM | TGI (T-47D breast): 14.7 µM | GI50 (TK-10 renal): 0.648 µM | TGI (TK-10 renal): 16.4 µM | GI50 (U251 CNS): 0.78 µM | TGI (U251 CNS): 12.2 µM | GI50 (UACC-257 melanoma): 3.16 µM | TGI (UACC-257 melanoma): 11 µM | GI50 (UACC-62 melanoma): 1.19 µM | TGI (UACC-62 melanoma): 3.41 µM | GI50 (UO-31 renal): 0.822 µM | TGI (UO-31 renal): 11.7 µM
